Experimental data: ChEMBL document CHEMBL1154822, “Synthesis and antiproliferative activity of 7-azaindirubin-3'-oxime, a 7-aza isostere of the natural indirubin pharmacophore” (J Nat Prod, 2009)

Experiments:
Format in all cases: functional
[1] = tested on: COLO 205; assay: Cytotoxicity against human COLO205 cells assessed as cell growth at 100 uM after 1 to 11 days by MTT assay; conditions: read-out: Activity
[2] = tested on: SW-620; assay: Cytotoxicity against human SW620 cells after 1 to 11 days by MTT assay
[3] = tested on: UACC-62; assay: Cytotoxicity against human UACC62 cells assessed as cell growth at 100 uM after 1 to 11 days by MTT assay; conditions: read-out: Activity
[4] = tested on: NCI-H322M; assay: Cytotoxicity against human NCI-H322M cells assessed as cell growth at 1 mM after 1 to 11 days by MTT assay; conditions: read-out: Activity
[5] = tested on: T47D; assay: Cytotoxicity against human T47D cells assessed as cell growth at 0.1 uM after 1 to 11 days by MTT assay; conditions: read-out: Activity
[6] = tested on: K562; assay: Cytotoxicity against human K562 cells assessed as cell growth at 0.1 uM after 1 to 11 days by MTT assay; conditions: read-out: Activity
[7] = tested on: A498; assay: Cytotoxicity against human A498 cells assessed as cell growth at 10 uM after 1 to 11 days by MTT assay; conditions: read-out: Activity
[8] = tested on: SF-268; assay: Cytotoxicity against human SF268 cells assessed as cell growth at 10 uM after 1 to 11 days by MTT assay; conditions: read-out: Activity
[9] = tested on: HT-29; assay: Cytotoxicity against human HT-29 cells assessed as cell growth at 100 uM after 1 to 11 days by MTT assay; conditions: read-out: Activity
[10] = tested on: HCT-116; assay: Cytotoxicity against human HCT116 cells assessed as cell growth at 1 uM after 1 to 11 days by MTT assay; conditions: read-out: Activity
[11] = tested on: LOX IMVI; assay: Cytotoxicity against human LOXIMVI cells assessed as cell growth at 1 uM after 1 to 11 days by MTT assay; conditions: read-out: Activity
[12] = tested on: HCT-116; assay: Cytotoxicity against human HCT116 cells assessed as cell growth at 0.1 uM after 1 to 11 days by MTT assay; conditions: read-out: Activity
[13] = tested on: HOP-92; assay: Cytotoxicity against human HOP92 cells assessed as cell growth at 1 uM after 1 to 11 days by MTT assay; conditions: read-out: Activity
[14] = tested on: OVCAR-3; assay: Cytotoxicity against human OVCAR-3 cells after 1 to 11 days by MTT assay
[15] = tested on: MCF7; assay: Cytotoxicity against human MCF7 cells assessed as cell growth at 1 mM after 1 to 11 days by MTT assay; conditions: read-out: Activity
[16] = read-out: LC50 (the source's name)

## O=C1Nc2ncccc2/C1=C1/Nc2ccccc2/C1=N\O
[1]
  growth at 100 µM: 59%
[2]
  GI50: 7.45 µM
  TGI: > 100 µM
[2]; [16]
  CC50: > 100 µM
[3]
  growth at 100 µM: 27%
[4]
  growth at 1000 µM: 12%
[5]
  growth at 0.1 µM: 100%
[6]
  growth at 0.1 µM: 88%
[7]
  growth at 10 µM: 63%
[8]
  growth at 10 µM: 91%
[9]
  growth at 100 µM: 81%
[10]
  growth at 1 µM: 107%
[11]
  growth at 1 µM: 97%
[12]
  growth at 0.1 µM: 109%
[13]
  growth at 1 µM: 81%
[14]
  GI50: > 100 µM
  TGI: > 100 µM
[14]; [16]
  CC50: > 100 µM
[15]
  growth at 1000 µM: 41%
